#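 Assay format: 96-well plates, 48-hour exposure. TGI marks complete inhibition of growth.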
# What was measured:
# Experiment in all cases: NCI-60 cell line screen, 48 h
# SR leukemia = test system: SR leukemia
# TK-10 renal = test system: TK-10 renal
# RXF 393 renal = test system: RXF 393 renal
# M14 melanoma = test system: M14 melanoma
# U251 CNS = test system: U251 CNS
# UACC-62 melanoma = test system: UACC-62 melanoma
# UACC-257 melanoma = test system: UACC-257 melanoma
# MOLT-4 leukemia = test system: MOLT-4 leukemia
# MDA-MB-435 = test system: MDA-MB-435
# SF-268 CNS = test system: SF-268 CNS
# OVCAR-4 ovarian = test system: OVCAR-4 ovarian
# SN12C renal = test system: SN12C renal
# UO-31 renal = test system: UO-31 renal
# EKVX NSCLC = test system: EKVX NSCLC
# SW-620 colon = test system: SW-620 colon
# MDA-MB-231 breast = test system: MDA-MB-231 breast
# COLO 205 colon = test system: COLO 205 colon
# 786-0 renal = test system: 786-0 renal
# SF-539 CNS = test system: SF-539 CNS
# SK-MEL-5 melanoma = test system: SK-MEL-5 melanoma
# SNB-19 CNS = test system: SNB-19 CNS
# HCC-2998 colon = test system: HCC-2998 colon
# CAKI-1 renal = test system: CAKI-1 renal
# NCI-H23 lung = test system: NCI-H23 lung
# A498 renal = test system: A498 renal
# SK-OV-3 ovarian = test system: SK-OV-3 ovarian
# NCI-H522 lung = test system: NCI-H522 lung
# A549 NSCLC = test system: A549 NSCLC
# HT29 colon = test system: HT29 colon
# PC-3 prostate = test system: PC-3 prostate
# HS 578T breast = test system: HS 578T breast
# OVCAR-5 ovarian = test system: OVCAR-5 ovarian
# HOP-62 NSCLC = test system: HOP-62 NSCLC
# RPMI-8226 leukemia = test system: RPMI-8226 leukemia
# SK-MEL-28 melanoma = test system: SK-MEL-28 melanoma
# HOP-92 NSCLC = test system: HOP-92 NSCLC
# IGROV1 ovarian = test system: IGROV1 ovarian
# NCI/ADR-RES ovarian = test system: NCI/ADR-RES ovarian
# KM12 colon = test system: KM12 colon
# LOX IMVI melanoma = test system: LOX IMVI melanoma
# OVCAR-8 ovarian = test system: OVCAR-8 ovarian
# NCI-H460 lung = test system: NCI-H460 lung
# HCT-116 colon = test system: HCT-116 colon
# DU-145 prostate = test system: DU-145 prostate
# SNB-75 CNS = test system: SNB-75 CNS
# HCT-15 colon = test system: HCT-15 colon
# MCF7 breast = test system: MCF7 breast
# MALME-3M melanoma = test system: MALME-3M melanoma
# NCI-H226 lung = test system: NCI-H226 lung
# CCRF-CEM leukemia = test system: CCRF-CEM leukemia
# SF-295 CNS = test system: SF-295 CNS
# OVCAR-3 ovarian = test system: OVCAR-3 ovarian
# ACHN renal = test system: ACHN renal
# BT-549 breast = test system: BT-549 breast
# K-562 leukemia = test system: K-562 leukemia
smiles,measurement,setting,value
CC1=C(C)SC(=C2Sc3nc(O)[nH]c(=O)c3S2)S1,TGI,SR leukemia,79.9 µM
same,TGI,TK-10 renal,> 100 µM
same,TGI,RXF 393 renal,> 100 µM
same,TGI,M14 melanoma,94.1 µM
same,TGI,U251 CNS,> 100 µM
same,TGI,UACC-62 melanoma,59.4 µM
same,TGI,UACC-257 melanoma,> 100 µM
same,TGI,MOLT-4 leukemia,> 100 µM
same,TGI,MDA-MB-435,> 100 µM
same,TGI,SF-268 CNS,> 100 µM
same,TGI,OVCAR-4 ovarian,> 100 µM
same,TGI,SN12C renal,> 100 µM
same,TGI,UO-31 renal,> 100 µM
same,TGI,EKVX NSCLC,> 100 µM
same,TGI,SW-620 colon,> 100 µM
same,TGI,MDA-MB-231 breast,> 100 µM
same,TGI,COLO 205 colon,> 100 µM
same,TGI,786-0 renal,> 100 µM
same,TGI,SF-539 CNS,> 100 µM
same,TGI,SK-MEL-5 melanoma,> 100 µM
same,TGI,SNB-19 CNS,> 100 µM
same,TGI,HCC-2998 colon,> 100 µM
same,TGI,CAKI-1 renal,> 100 µM
same,TGI,NCI-H23 lung,> 100 µM
same,TGI,A498 renal,> 100 µM
same,TGI,SK-OV-3 ovarian,> 100 µM
same,TGI,NCI-H522 lung,> 100 µM
same,TGI,A549 NSCLC,> 100 µM
same,TGI,HT29 colon,> 100 µM
same,TGI,PC-3 prostate,> 100 µM
same,TGI,HS 578T breast,> 100 µM
same,TGI,OVCAR-5 ovarian,> 100 µM
same,TGI,HOP-62 NSCLC,> 100 µM
same,TGI,RPMI-8226 leukemia,> 100 µM
same,TGI,SK-MEL-28 melanoma,> 100 µM
same,TGI,HOP-92 NSCLC,> 100 µM
same,TGI,IGROV1 ovarian,> 100 µM
same,TGI,NCI/ADR-RES ovarian,> 100 µM
same,TGI,KM12 colon,> 100 µM
same,TGI,LOX IMVI melanoma,> 100 µM
same,TGI,OVCAR-8 ovarian,> 100 µM
same,TGI,NCI-H460 lung,> 100 µM
same,TGI,HCT-116 colon,> 100 µM
same,TGI,DU-145 prostate,> 100 µM
same,TGI,SNB-75 CNS,> 100 µM
same,TGI,HCT-15 colon,> 100 µM
same,TGI,MCF7 breast,> 100 µM
same,TGI,MALME-3M melanoma,50.8 µM
same,TGI,NCI-H226 lung,> 100 µM
same,TGI,CCRF-CEM leukemia,> 100 µM
same,TGI,SF-295 CNS,> 100 µM
same,TGI,OVCAR-3 ovarian,> 100 µM
same,TGI,ACHN renal,> 100 µM
same,TGI,BT-549 breast,> 100 µM
same,TGI,K-562 leukemia,> 100 µM

# — PubChem BioAssay (NCI)
